Assay results taken from BindingDB's records for doi:10.1016/j.bmc.2019.05.024 (Charles University, 2019).

assay: Inhibition of influenza A virus chicken/Nakorn-Patom/Thailand/CU-K2-2004 Neuraminidase N1 at pH 7.4 by DIANA assay

| SMILES | Ki [µM] |
| --- | --- |
| CCC(CC)O[C@@H]1C=C(C(=O)O)C[C@H](n2cc(CO)nn2)[C@H]1NC(C)=O | 5.3 |
| CCC(CC)O[C@@H]1C=C(C(=O)O)C[C@H](NCc2cn(CC(=O)O)nn2)[C@H]1NC(C)=O | 4.3 |
| CCC(CC)O[C@@H]1C=C(C(=O)O)C[C@H](n2cc(C[C@@]3(C(=O)O)CCCN3)nn2)[C@H]1NC(C)=O | 49 |
| CCC(CC)O[C@@H]1C=C(C(=O)O)C[C@H](n2cc(COCC(C)(CO)CO)nn2)[C@H]1NC(C)=O | 49 |
| CCC(CC)O[C@@H]1C=C(C(=O)O)C[C@H](NCc2cn(CC(C)(CO)CO)nn2)[C@H]1NC(C)=O | 0.71 |
| CCC(CC)O[C@H]1CC(C(=O)O)=C[C@@H](n2cc(CN3CCS(=O)(=O)CC3)nn2)[C@@H]1NC(C)=O | 94 |
| CCC(CC)O[C@@H]1C=C(C(=O)O)C[C@H](NCc2cn(CCN3CCS(=O)(=O)CC3)nn2)[C@H]1NC(C)=O | 6.2 |
| CCC(CC)O[C@@H]1C=C(C(=O)O)C[C@H](NCc2cn(CC(=O)NC)nn2)[C@H]1NC(C)=O | 0.74 |
| CCC(CC)O[C@@H]1C=C(C(=O)O)C[C@H](n2cc(-c3ccsc3)nn2)[C@H]1NC(C)=O | 4 |
| CCC(CC)O[C@@H]1C=C(C(=O)O)C[C@H](n2cc(CNc3cccc(C(F)(F)F)c3)nn2)[C@H]1NC(C)=O | 1.9 |
| CCC(CC)O[C@@H]1C=C(C(=O)O)C[C@H](NCc2cn(CC(=O)N(C)C)nn2)[C@H]1NC(C)=O | 3.1 |
| CCC(CC)O[C@@H]1C=C(C(=O)O)C[C@H](n2cc(CNc3ccccc3)nn2)[C@H]1NC(C)=O | 5 |
| CCC(CC)O[C@@H]1C=C(C(=O)O)C[C@H](n2cc(CNc3cc(F)ccc3OC)nn2)[C@H]1NC(C)=O | 11 |
| CCC(CC)O[C@@H]1C=C(C(=O)O)C[C@H](n2cc(CNc3ccc(NC(C)=O)cc3)nn2)[C@H]1NC(C)=O | 5.6 |
| CCC(CC)O[C@@H]1C=C(C(=O)O)C[C@H](n2cc(CN(C)c3ccc(OC)cc3)nn2)[C@H]1NC(C)=O | 8.1 |
| CCC(CC)O[C@@H]1C=C(C(=O)O)C[C@H](n2cc(CNc3ccc(C(N)=O)c(C(F)(F)F)c3)nn2)[C@H]1NC(C)=O | 5 |
| CCC(CC)O[C@@H]1C=C(C(=O)O)C[C@H](NCc2cn(CCO)nn2)[C@H]1NC(C)=O | 0.47 |
| CCC(CC)O[C@@H]1C=C(C(=O)O)C[C@H](n2cc(-c3cccs3)nn2)[C@H]1NC(C)=O | 7.1 |
| CCC(CC)O[C@@H]1C=C(C(=O)O)C[C@H](n2cc(C[C@H](N)C(=O)O)nn2)[C@H]1NC(C)=O | 25 |
| CCC(CC)O[C@@H]1C=C(C(=O)O)C[C@H](n2cc(CNc3ccccc3C(N)=O)nn2)[C@H]1NC(C)=O | 5.1 |
